According to patent US8778896B2, “Levoisovalerylspiramycin I, II or III, preparations, preparation methods and uses thereof” (Shenyang Tonglian Group Co., Ltd., priority 2010, dated 2014):
Converted amounts (≈) assume the structure as drawn.

Assays:
[1] = tested on: streptococcus pneumoniae (112); test: Clinical isolates, agar double dilution method; format: cell-based; details: 112 clinical isolates of streptococcus pneumoniae; for MIC50: read-out: MIC50; for MIC90: read-out: MIC90
[2] = tested on: Mycoplasma Urealyticum and Mycoplasma Pneumoniae strains; test: Mycoplasma in vitro MIC (U-PPLO broth); format: cell-based; details: for Uu resistant effect: in words; for MIC: Mycoplasma, determined 4 times, final MIC (24 h), read-out: MIC
Experimental: 1. Test methods: adding U-PPLO 0.8 ml to each pore of aseptic 12-pore cell culture plate (adding 0.9 ml to inoculum control pore and 1.0 ml to medium control pore).
2. Add 10^4CCU/ml Uu inoculum 0.1 ml to each experimental pore. The final dose in the pore is 10^3CCU/ml (the medium control pore will not be added with inoculum).
3. Divide into 3 groups (100 μg/ml, 10 μg/ml and 1 μg/ml antibiotic stock solution), Use aseptic Tip to add antibiotic for test to each pore: 100 μl, 50 μl, 25 μl, 12.5 μl according to the double degradation concentration gradient. (The inoculum and medium control pores will not be added with the antibiotic, and meanwhile the antibiotic control pore is arranged.)
4. Blend all pores evenly. Seal the culture plate by tapes and place it in a 37[…] box for culture.
5. On 17-24 hours after the test, observe and record the Uu growth situation. When Uu inoculum control pore presents a positive growth, the minimal antibiotic concentration, which can suppress the growth of Uu, is the MIC of sample.

[3] = tested on: Chlamydia Pneumoniae CWL-029; test: Chlamydia in vitro MIC, HEp-2 cells, immunofluorescence; format: cell-based; details: Chlamydia pneumoniae, 72 h, Chlamydia Pneumoniae CWL-029, HEp-2 cells, read-out: MIC
enterococcus32 [4] = test: MIC against the infecting test organism; format: cell-based, enterococcus; details: Enterococcus, read-out: MIC
[5] = tested on: staphylococcus aureus (155); test: Clinical isolates, agar double dilution method; format: cell-based; details: 155 clinical isolates of staphylococcus aureus; for MIC50: read-out: MIC50; for MIC90: read-out: MIC90
enterococcus32 [6] = test: Curative effect on mouse with abdominal infection (ED50); format: in vivo, enterococcus; details: Enterococcus, 168 h, enterococcus32, challenging dose 5.4 × 10^4 CFU/0.5 ml, deaths in 7 days, Bliss, read-out: ED50
Experimental: (§1) Test method: preparation of infection bacterial liquid: taking out the test bacterial liquid which is kept in a refrigerator at −80[…] to room temperature for about 1 h, then inoculating streptococcus pneumonia, pyogenic streptococcus and enterococcus absorbing 0.1 ml bacterial liquid respectively to 2 ml MH broth (add 10% inactivated horse serum), and inoculating 0.1 ml bacterial liquid of staphylococcus aureus to 2 ml MH broth according to the same method above; putting it in an incubator at 37[…] to be cultivated for 18 h, to obtain original bacterial liquid; diluting the original bacterial liquid with 5% gastric mucin to make animals infected with 100% lethal bacteria, to obtain infection bacterial liquid.
(§2) The clinical route of administration of carrimycin is proposed to be oral administration, thus intragastric administration is adopted in carrimychin test. Levoisovalerylspiramycin I (obtained in Embodiment 1) and of crystalline compound of levoisovalerylspiramycin I (prepared in Embodiment 27) are fed to animals via […].
(§3) After the mice are infected, respectively feed each mouse 0.2 ml via intragastric administration at 0.5 to 6 h, and they have no adverse reaction. Observe the number of deaths in 7 days, and calculate the 50% effective dose (ED50) of each drug for the infected mouse and compare the protective effect of drugs by Bliss program.

staphylococcus aureus21 = test: as above; format: in vivo, staphylococcus aureus; details: Staphylococcus, AUREUS21, 168 h, staphylococcus aureus21, challenging dose 4.2 × 10^4 CFU/0.5 ml, deaths in 7 days, Bliss, read-out: ED50
Experimental: as §1, §2, §3

staphylococcus aureus76 = test: as above; format: in vivo, staphylococcus aureus; details: Staphylococcus, AUREUS76, 168 h, staphylococcus aureus76, challenging dose 5.8 × 10^4 CFU/0.5 ml, deaths in 7 days, Bliss, read-out: ED50
Experimental: as §1, §2, §3

staphylococcus aureus12 [7] = test: as above; format: in vivo, staphylococcus aureus; details: Staphylococcus, AUREUS12, 168 h, staphylococcus aureus12, challenging dose 4.8 × 10^4 CFU/0.5 ml, deaths in 7 days, Bliss, read-out: ED50
Experimental: as §1, §2, §3

staphylococcus aureus16 = test: as above; format: in vivo, staphylococcus aureus; details: Staphylococcus, AUREUS16, 168 h, staphylococcus aureus16, challenging dose 5.2 × 10^3 CFU/0.5 ml, deaths in 7 days, Bliss, read-out: ED50
Experimental: as §1, §2, §3

staphylococcus aureus12 [8] = test: MIC against the infecting test organism; format: cell-based, staphylococcus aureus; details: read-out: MIC
[9] = tested on: Chlamydia Trachomatis D/UW-3/Cx; test: Chlamydia in vitro MIC, McCoy cells, immunofluorescence; format: cell-based; details: 48 hours, read-out: MIC
[10] = tested on: streptococcus pneumoniae3; test: MIC against the infecting test organism; format: cell-based, streptococcus pneumoniae; details: read-out: MIC
gonococcus (10) = test: Clinical isolates, agar double dilution method; format: cell-based; details: 10 clinical isolates of gonococcus; for MIC50: read-out: MIC50; for MIC90: read-out: MIC90
S. epidermidis (115) = test: Clinical isolates, agar double dilution method; format: cell-based; details: Staphylococcus epidermidis, 115 clinical isolates of S. epidermidis; for MIC50: read-out: MIC50; for MIC90: read-out: MIC90
12 strains of bacteria = test: Protective effect on mouse infected with 12 strains of bacteria; format: in vivo; details: in words
Experimental: as §1, §2, §3

Row | Structure (SMILES) | MIC50 [1] | MIC90 [1] | Uu resistant effect [2] | MIC [3] | MIC (enterococcus32 [4]) | MIC50 [5] | MIC90 [5] | ED50 (enterococcus32 [6]) | ED50 (staphylococcus aureus21) | ED50 (staphylococcus aureus76) | ED50 (staphylococcus aureus12 [7]) | ED50 (staphylococcus aureus16) | MIC (staphylococcus aureus12 [8]) | MIC [9] | MIC [10] | MIC range (gonococcus (10)) | MIC50 (gonococcus (10)) | MIC90 (gonococcus (10)) | MIC50 (S. epidermidis (115)) | MIC90 (S. epidermidis (115)) | also measured
1 | CCC(=O)OC1CC(=O)OC(C)C/C=C/C=C/C(OC2CCC(N(C)C)C(C)O2)C(C)CC(CC=O)C(OC2OC(C)C(OC3CC(C)(O)C(OC(=O)CC(C)C)C(C)O3)C(N(C)C)C2O)C1OC (stereo not drawn) [Levoisovalerylspiramycin III, levoisovalerylspiramycin III] | 0.12 µg/mL (≈ 0.122 µM) | 4 µg/mL (≈ 4.07 µM) | favorable Uu resistant effect | 0.016 µg/mL (≈ 0.0163 µM) | 0.25 µg/mL (≈ 0.254 µM) | 2 µg/mL (≈ 2.03 µM) | 32 µg/mL (≈ 32.5 µM) | 70.2 mg/kg | 38.9 mg/kg | 22.3 mg/kg | 108 mg/kg | 20.9 mg/kg | 1 µg/mL (≈ 1.02 µM) | 0.25 µg/mL (≈ 0.254 µM) | 0.12 µg/mL (≈ 0.122 µM) | 0.12 to 16 µg/mL | 1 µg/mL (≈ 1.02 µM) | 4 µg/mL (≈ 4.07 µM) | 1 µg/mL (≈ 1.02 µM) | 32 µg/mL (≈ 32.5 µM) | –
2 | CC[C@H]1OC(=O)[C@H](C)[C@@H](O[C@H]2C[C@@](C)(OC)[C@@H](O)[C@H](C)O2)[C@H](C)[C@@H](O[C@@H]2O[C@H](C)C[C@H](N(C)C)[C@H]2O)[C@](C)(O)C[C@@H](C)C(=O)[C@H](C)[C@@H](O)[C@]1(C)O [erythrocin, reference compound] | 0.25 µg/mL (≈ 0.341 µM) | 64 µg/mL (≈ 87.2 µM) | poorest | ≤ 0.016 µg/mL | 2 µg/mL (≈ 2.73 µM) | 1 µg/mL (≈ 1.36 µM) | > 64 µg/mL | 175 mg/kg | 214 mg/kg | 64.2 mg/kg | 266 mg/kg | 82.4 mg/kg | – | 0.5 µg/mL (≈ 0.681 µM) | 1 µg/mL (≈ 1.36 µM) | 0.12 to 64 µg/mL | 1 µg/mL (≈ 1.36 µM) | 8 µg/mL (≈ 10.9 µM) | 8 µg/mL (≈ 10.9 µM) | > 64 µg/mL | MIC [2]: 5 µg/mL (≈ 6.81 µM)
3 | COC1C(O)CC(=O)OC(C)C/C=C/C=C/C(OC2CCC(N(C)C)C(C)O2)C(C)CC(CC=O)C1OC1OC(C)C(OC2CC(C)(O)C(OC(=O)CC(C)C)C(C)O2)C(N(C)C)C1O (stereo not drawn) [Levoisovalerylspiramycin I, levoisovalerylspiramycin I] | 0.12 µg/mL (≈ 0.129 µM) | 2 µg/mL (≈ 2.16 µM) | favorable Uu resistant effect | 0.016 µg/mL (≈ 0.0173 µM) | 0.5 µg/mL (≈ 0.539 µM) | 1 µg/mL (≈ 1.08 µM) | 64 µg/mL (≈ 69 µM) | 77.5 mg/kg | 42.7 mg/kg | 24.4 mg/kg | 110 mg/kg | 23.5 mg/kg | 1 µg/mL (≈ 1.08 µM) | 0.25 µg/mL (≈ 0.27 µM) | 0.12 µg/mL (≈ 0.129 µM) | 0.12 to 16 µg/mL | 1 µg/mL (≈ 1.08 µM) | 4 µg/mL (≈ 4.31 µM) | 1 µg/mL (≈ 1.08 µM) | 32 µg/mL (≈ 34.5 µM) | MIC [2]: 0.025 to 0.125 µg/mL (≈ 0.027 to 0.135 µM); protective effect (curative effect) on infected mouse (12 strains of bacteria): good protective effect
4 | COC1C(OC(C)=O)CC(=O)OC(C)C/C=C/C=C/C(OC2CCC(N(C)C)C(C)O2)C(C)CC(CC=O)C1OC1OC(C)C(OC2CC(C)(O)C(OC(=O)CC(C)C)C(C)O2)C(N(C)C)C1O (stereo not drawn) [Levoisovalerylspiramycin II, levoisovalerylspiramycin II] | 0.12 µg/mL (≈ 0.124 µM) | 2 µg/mL (≈ 2.06 µM) | favorable Uu resistant effect | ≤ 0.016 µg/mL | 0.25 µg/mL (≈ 0.258 µM) | 1 µg/mL (≈ 1.03 µM) | 32 µg/mL (≈ 33 µM) | 70.2 mg/kg | 38.9 mg/kg | 22.3 mg/kg | 108 mg/kg | 20.9 mg/kg | 1 µg/mL (≈ 1.03 µM) | 0.25 µg/mL (≈ 0.258 µM) | 0.12 µg/mL (≈ 0.124 µM) | 0.12 to 16 µg/mL | 1 µg/mL (≈ 1.03 µM) | 4 µg/mL (≈ 4.13 µM) | 1 µg/mL (≈ 1.03 µM) | 64 µg/mL (≈ 66 µM) | MIC [2]: 0.025 to 0.125 µg/mL (≈ 0.0258 to 0.129 µM)
5 | CC[C@H]1OC(=O)[C@H](C)[C@@H](O[C@H]2C[C@@](C)(OC)[C@@H](O)[C@H](C)O2)[C@H](C)[C@@H](O[C@@H]2O[C@H](C)C[C@H](N(C)C)[C@H]2O)[C@](C)(O)C[C@@H](C)CN(C)[C@H](C)[C@@H](O)[C@]1(C)O [azithromycin, reference compound] | 0.25 µg/mL (≈ 0.334 µM) | 8 µg/mL (≈ 10.7 µM) | – | 0.032 µg/mL (≈ 0.0427 µM) | 1 µg/mL (≈ 1.34 µM) | 2 µg/mL (≈ 2.67 µM) | > 64 µg/mL | 147 mg/kg | 143 mg/kg | 58.8 mg/kg | 120 mg/kg | 32 mg/kg | 2 µg/mL (≈ 2.67 µM) | 0.25 µg/mL (≈ 0.334 µM) | 0.12 µg/mL (≈ 0.16 µM) | 0.12 to 64 µg/mL | 2 µg/mL (≈ 2.67 µM) | 8 µg/mL (≈ 10.7 µM) | 8 µg/mL (≈ 10.7 µM) | > 64 µg/mL | –
